Laboratory results reported in US10758534B2 (Vertex Pharmaceuticals Incorporated, priority 2014, dated 2020).

Target: T1, F508del (Homo sapiens, UniProt P13569, DEL508-508)
T1 construct: expressed in transfected cells
Assay: Protocol 1: membrane potential optical assay (FLIPR III, voltage sensing dye), identification of potentiator compounds
Format: cell-based
Conditions: Table 3, compounds of Table 1
How it was run: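 NIH3T3 F508del cells, 27° C × 24 hrs; compound/DMSO pretreat → redistribution dye load → single forskolin addition with Cl⁻ gradient (gluconate-substituted bath, HEPES pH 7.4). FLIPR III membrane-potential fluorescence read.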

T1 sequence (P13569 with tags, fused parts or gaps DEL508-508): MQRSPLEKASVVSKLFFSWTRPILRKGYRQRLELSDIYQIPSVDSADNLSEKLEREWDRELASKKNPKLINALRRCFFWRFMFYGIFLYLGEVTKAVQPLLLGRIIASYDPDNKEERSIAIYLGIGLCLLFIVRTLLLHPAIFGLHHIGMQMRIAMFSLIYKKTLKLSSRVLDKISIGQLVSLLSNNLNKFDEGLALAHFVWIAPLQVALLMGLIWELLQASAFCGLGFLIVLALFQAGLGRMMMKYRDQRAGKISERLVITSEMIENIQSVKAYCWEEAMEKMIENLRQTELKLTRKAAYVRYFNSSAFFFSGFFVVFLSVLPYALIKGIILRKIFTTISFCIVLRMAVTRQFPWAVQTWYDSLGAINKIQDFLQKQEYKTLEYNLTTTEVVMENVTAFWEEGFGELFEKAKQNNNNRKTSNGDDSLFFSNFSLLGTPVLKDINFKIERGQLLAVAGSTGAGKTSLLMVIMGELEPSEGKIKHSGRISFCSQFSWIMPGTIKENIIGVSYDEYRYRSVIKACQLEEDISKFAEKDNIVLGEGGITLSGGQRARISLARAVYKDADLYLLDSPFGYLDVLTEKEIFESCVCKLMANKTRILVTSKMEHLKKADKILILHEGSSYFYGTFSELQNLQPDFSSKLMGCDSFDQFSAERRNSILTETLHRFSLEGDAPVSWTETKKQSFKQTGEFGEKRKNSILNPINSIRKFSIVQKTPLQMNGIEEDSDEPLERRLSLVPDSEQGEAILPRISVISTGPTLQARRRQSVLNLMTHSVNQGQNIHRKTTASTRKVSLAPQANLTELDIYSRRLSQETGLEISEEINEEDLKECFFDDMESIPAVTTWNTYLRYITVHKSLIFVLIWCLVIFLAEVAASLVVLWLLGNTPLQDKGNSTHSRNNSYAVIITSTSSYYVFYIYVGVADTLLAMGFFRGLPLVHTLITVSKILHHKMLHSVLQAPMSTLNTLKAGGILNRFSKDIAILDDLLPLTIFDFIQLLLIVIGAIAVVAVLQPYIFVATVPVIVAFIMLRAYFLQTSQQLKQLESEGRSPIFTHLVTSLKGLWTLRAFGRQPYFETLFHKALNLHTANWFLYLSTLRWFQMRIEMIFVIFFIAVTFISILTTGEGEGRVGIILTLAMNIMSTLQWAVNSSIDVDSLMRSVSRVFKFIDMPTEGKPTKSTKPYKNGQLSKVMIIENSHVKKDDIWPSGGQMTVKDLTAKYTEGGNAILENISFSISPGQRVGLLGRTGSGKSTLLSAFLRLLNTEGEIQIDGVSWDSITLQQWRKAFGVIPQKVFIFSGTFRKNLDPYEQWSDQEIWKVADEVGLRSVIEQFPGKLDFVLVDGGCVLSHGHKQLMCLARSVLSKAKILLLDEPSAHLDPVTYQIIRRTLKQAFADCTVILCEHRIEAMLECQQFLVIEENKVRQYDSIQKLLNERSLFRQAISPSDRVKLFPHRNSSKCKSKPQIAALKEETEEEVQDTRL

| Compound | EC30 |
| --- | --- |
| CC1(Cn2nc(C(C)(C)C)cc2C(=O)NS(=O)(=O)c2cccc(N)c2)CCCCC1 [Compound 1152, N-(3-aminophenyl)sulfonyl-5-tert-butyl-2-[(1-methylcyclohexyl)methyl]pyrazole-3-carboxamide] | + (“+” means greater than 10 uM) |
| COc1cccc(S(=O)(=O)NC(=O)c2ccc(-c3cc(F)cc(OCC(C)C)c3)nc2N2C[C@@H](C)CC2(C)C)c1 [Compound 1452, 6-(3-fluoro-5-isobutoxy-phenyl)-N-(3-methoxyphenyl)sulfonyl-2-[(4S)-2,2,4-trimethylpyrrolidin-1-yl]pyridine-3-carboxamide] | +++ (“+++” means <3 uM) |
| CC(C)Oc1ccc(-c2ccc(C(=O)NS(=O)(=O)c3cccc(N)n3)c(N3CC(C)(C)CC3(C)C)n2)cn1 [Compound 915, N-[(6-amino-2-pyridyl)sulfonyl]-6-(6-isopropoxy-3-pyridyl)-2-(2,2,4,4-tetramethylpyrrolidin-1-yl)pyridine-3-carboxamide] | +++ (“+++” means <3 uM) |
| C#CC1CCCN(c2nc(-c3ccc(OC(C)C)nc3)ccc2C(=O)NS(=O)(=O)c2cccc(N)n2)C1 (stereo not shown) [Compound 954, N-[(6-amino-2-pyridyl)sulfonyl]-2-(3-ethynyl-1-piperidyl)-6-(6-isopropoxy-3-pyridyl)pyridine-3-carboxamide] | +++ (“+++” means <3 uM) |
| CC1CCN(c2nc(-c3ccc(C(C)C)cc3)ccc2C(=O)NS(=O)(=O)c2cccc(N)n2)CC1 [Compound 847, N-[(6-amino-2-pyridyl)sulfonyl]-6-(4-isopropylphenyl)-2-(4-methyl-1-piperidyl)pyridine-3-carboxamide] | +++ (“+++” means <3 uM) |
| CCOc1ccc(-c2ccc(C(=O)NS(=O)(=O)c3cccc(N)n3)c(Oc3c(C)cc(C)cc3C)n2)cn1 [Compound 1185, N-[(6-amino-2-pyridyl)sulfonyl]-6-(6-ethoxy-3-pyridyl)-2-(2,4,6-trimethylphenoxy)pyridine-3-carboxamide] | +++ (“+++” means <3 uM) |
| Cc1cc(C)c(Oc2nc(C3=CCC(C)CC3)ccc2C(=O)NS(=O)(=O)c2ccc[nH]c2=O)c(C)c1 (stereo not shown) [Compound 1052, 6-(4-methylcyclohexen-1-yl)-N-[(2-oxo-1H-pyridin-3-yl)sulfonyl]-2-(2,4,6-trimethylphenoxy)pyridine-3-carboxamide] | +++ (“+++” means <3 uM) |
| Cc1cc(F)ccc1-c1ccc(C(=O)NS(=O)(=O)c2cccc(N)n2)c(N2CC(C)CC2(C)C)n1 (stereo not shown) [Compound 822, N-[(6-amino-2-pyridyl)sulfonyl]-6-(4-fluoro-2-methyl-phenyl)-2-(2,2,4-trimethylpyrrolidin-1-yl)pyridine-3-carboxamide] | +++ (“+++” means <3 uM) |
| Cc1cc(C)c(CN2CCc3ccccc3CC2C(=O)NS(=O)(=O)c2cccc(N)n2)c(C)c1 (stereo not shown) [Compound 1055, N-[(6-amino-2-pyridyl)sulfonyl]-3-[(2,4,6-trimethylphenyl)methyl]-1,2,4,5-tetrahydro-3-benzazepine-4-carboxamide] | ++ (“++” means between 3 uM and 10 uM) |
| Cc1cc(C)c(Oc2nc(-c3ccc(OC(C)C)nc3)ccc2C(=O)NS(=O)(=O)c2cccc(N)n2)c(C)c1 [Compound 1163, N-[(6-amino-2-pyridyl)sulfonyl]-6-(6-isopropoxy-3-pyridyl)-2-(2,4,6-trimethylphenoxy)pyridine-3-carboxamide] | +++ (“+++” means <3 uM) |
| Cc1ccc(-c2ccc(C(=O)NS(=O)(=O)c3cccc(N)n3)c(N3CCC(C)CC3)n2)cc1 [Compound 802, N-[(6-amino-2-pyridyl)sulfonyl]-2-(4-methyl-1-piperidyl)-6-(p-tolyl)pyridine-3-carboxamide] | +++ (“+++” means <3 uM) |
| CC(C)COc1cc(F)cc(-c2ccc(C(=O)NS(=O)(=O)c3ccn[nH]3)c(N3CCCC3C)n2)c1 (stereo not shown) [Compound 1142, 6-(3-fluoro-5-isobutoxy-phenyl)-2-(2-methylpyrrolidin-1-yl)-N-(1H-pyrazol-5-ylsulfonyl)pyridine-3-carboxamide] | ++ (“++” means between 3 uM and 10 uM) |
| CCC(C)Oc1ccn(-c2ccc(C(=O)NS(=O)(=O)c3cccnc3N)c(N3C[C@@H](C)CC3(C)C)n2)n1 (stereo partly drawn) [Compound 1970, N-[(2-amino-3-pyridyl)sulfonyl]-6-(3-sec-butoxypyrazol-1-yl)-2-[(4S)-2,2,4-trimethylpyrrolidin-1-yl]pyridine-3-carboxamide] | +++ (“+++” means <3 uM) |

Continued, values first:

| EC30 | Compound |
| --- | --- |
| +++ (“+++” means <3 uM) | CC1CN(c2ncccc2C(=O)NS(=O)(=O)c2cccc(N3CCN(C(=O)OC(C)(C)C)CC3)n2)C(C)(C)C1 (stereo not shown) [Compound 1773, tert-butyl 4-[6-[[2-(2,2,4-trimethylpyrrolidin-1-yl)pyridine-3-carbonyl]sulfamoyl]-2-pyridyl]piperazine-1-carboxylate] |
| +++ (“+++” means <3 uM) | CCOc1cccc2c1CN(Cc1c(C)cc(C)cc1C)C2(C)C(=O)NS(=O)(=O)c1ccc2c(c1)CCN2 (stereo not shown) [Compound 1422, 4-ethoxy-N-indolin-5-ylsulfonyl-1-methyl-2-[(2,4,6-trimethylphenyl)methyl]isoindoline-1-carboxamide] |
| +++ (“+++” means <3 uM) | C[C@@H]1CN(c2nc(-c3ccc(OCC(C)(C)C)nc3)ccc2C(=O)NS(=O)(=O)c2cccc(N)n2)C(C)(C)C1 [Compound 1504, N-[(6-amino-2-pyridyl)sulfonyl]-6-[6-(2,2-dimethylpropoxy)-3-pyridyl]-2-[(4S)-2,2,4-trimethylpyrrolidin-1-yl]pyridine-3-carboxamide] |
| ++ (“++” means between 3 uM and 10 uM) | Cc1ccc(C(=O)NS(=O)(=O)c2cccc(N)n2)c(N2C[C@@H](C)CC2(C)C)n1 [Compound 1420, N-[(6-amino-2-pyridyl)sulfonyl]-6-methyl-2-[(4S)-2,2,4-trimethylpyrrolidin-1-yl]pyridine-3-carboxamide] |
| +++ (“+++” means <3 uM) | COc1ccc(C)c(-c2nc(N3CC(C)CC3(C)C)c(C(=O)NS(=O)(=O)c3cccc(N)n3)cc2C)c1 (stereo not shown) [Compound 1287, N-[(6-amino-2-pyridyl)sulfonyl]-6-(5-methoxy-2-methyl-phenyl)-5-methyl-2-(2,2,4-trimethylpyrrolidin-1-yl)pyridine-3-carboxamide] |
| +++ (“+++” means <3 uM) | CCOc1cccc2c1CN(Cc1c(C)cc(C)cc1C)C2(C)C(=O)NS(=O)(=O)c1ccc(N)cc1 (stereo not shown) [Compound 1480, N-(4-aminophenyl)sulfonyl-4-ethoxy-1-methyl-2-[(2,4,6-trimethylphenyl)methyl]isoindoline-1-carboxamide] |
| +++ (“+++” means <3 uM) | C[C@@H]1CN(c2nc(C3CC4CCC3C4)ccc2C(=O)NS(=O)(=O)c2cccc(N)n2)C(C)(C)C1 (stereo partly drawn) [Compound 1378, NV [(6-amino-2-pyridyl)sulfonyl]-6-norbornan-2-yl-2-[(4S)-2,2,4-trimethylpyrrolidin-1-yl]pyridine-3-carboxamide] |
| +++ (“+++” means <3 uM) | CC1CN(c2ncccc2C(=O)NS(=O)(=O)c2cccc(N(C)CCc3ccccc3)n2)C(C)(C)C1 (stereo not shown) [Compound 1978, N—[[6-[methyl(phenethyl)amino]-2-pyridyl]sulfonyl]-2-(2,2,4-trimethylpyrrolidin-1-yl)pyridine-3-carboxamide] |
| +++ (“+++” means <3 uM) | C/C=C/COc1cccc(S(=O)(=O)NC(=O)c2cccnc2N2CC(C)CC2(C)C)n1 (stereo not shown) [Compound 1881, N—[[6-[(E)-but-2-enoxy]-2-pyridyl]sulfonyl]-2-(2,2,4-trimethylpyrrolidin-1-yl)pyridine-3-carboxamide] |
